The values that follow are results of earlier work, collected in US20200268684A1, “COMPOSITION FOR TREATING AND PREVENTING NEUROLOGICAL DISEASES, NEUROINFLAMATION AND ALZHEIMER'S DISEASE” (HSRX GROUP, LLC, priority 2015, published 2020).

The data set deals with Aβ1-40 and Aβ1-42 peptides in SweAPP N2a cells. Conditions: 3-30 μg/mL, 12 hours.

In the case of `COc1cc(/C=C/C(=O)CC(=O)/C=C/c2ccc(O)c(OC)c2)ccc1O` [curcumin], the “reduction of Aβ1-40 and Aβ1-42 peptides secreted” value is on record as “significant inhibition”.
